Source: patent US10577361B2, “Dopamine D3 receptor antagonists having a morpholine moiety” (Indivior UK Limited, priority 2015, dated 2020)

Tests used:
[1] = biological target: human dopamine receptor type 2, long variant (hD2L) (Homo sapiens (Human), UniProt P14416); experiment: [3H]-Spiperone binding assay at hD2 recombinant receptor (CHO-Gα16-hD2L membranes)
Procedure: [^3H]-Spiperone Binding Assay at hD2 Recombinant Receptor CHO cells stably expressing human dopamine receptor type 2, long variant (hD2L), coupled to Gα16 protein (CHO-Gα16-hD2L) were re-suspended in 20 mM HEPES, 2 mM EDTA (pH 7.4), homogenised and centrifuged at 40,000 g (20 min, 4° C.). After re-suspension, homogenization and centrifugation as above, the final pellet was re-suspended in 20 mM HEPES, 100 mM NaCl, 10 mM MgCl2, 1 mM EDTA (pH 7.4) and aliquots were kept at −80° C. [^3H]-Spiperone Binding experiments were performed in 96 deep-well polypropylene plates in 50 mM Tris/HCl, 120 mM NaCl, 5 mM KCl, 5 mM MgCl2 (pH 7.4). […] Displacement was performed in the presence of 0.08 nM [^3H]-Spiperone. The reaction was initiated by the addition of membrane suspension (2 μg of protein for CHO-hD2 membranes) and lasted for 120 min at 23° C. in a final volume of 1000 μl. Non specific binding (NSB) was determined in the presence of 0.1 μM Spiperone. The binding reaction was stopped by rapid filtration through GF/B filterplates pre-soaked in 0.5% polyetylenimmine (PEI) using a Packard cell harvester. After washing with ice-cold 0.9% NaCl, the plate was left to dry before the addition of Microscint 20 (50 μl/well, PerkinElmer). Radioactivity was counted with a TopCount (PerkinElmer). […] Saturation binding experiments were performed similar to the competition binding experiments using a radioligand concentrations ranging from 0.011 to 3.0 nM. […] Is Clozapine selective for the dopamine D4 receptor? […] Real-time analysis of dopamine: antagonist interactions at recombinant human D2long receptor upon modulation of its activation state. Brit. J.

[2] = biological target: human dopamine type 3 receptor (hD3) (Homo sapiens (Human), UniProt P35462); experiment: [3H]-Spiperone binding assay at hD3 recombinant receptor (CHO-hD3 membranes); conditions: pKi only estimated to be accurate to about ±0.3-0.5
Sequence of human dopamine type 3 receptor (hD3) (P35462 whole entry): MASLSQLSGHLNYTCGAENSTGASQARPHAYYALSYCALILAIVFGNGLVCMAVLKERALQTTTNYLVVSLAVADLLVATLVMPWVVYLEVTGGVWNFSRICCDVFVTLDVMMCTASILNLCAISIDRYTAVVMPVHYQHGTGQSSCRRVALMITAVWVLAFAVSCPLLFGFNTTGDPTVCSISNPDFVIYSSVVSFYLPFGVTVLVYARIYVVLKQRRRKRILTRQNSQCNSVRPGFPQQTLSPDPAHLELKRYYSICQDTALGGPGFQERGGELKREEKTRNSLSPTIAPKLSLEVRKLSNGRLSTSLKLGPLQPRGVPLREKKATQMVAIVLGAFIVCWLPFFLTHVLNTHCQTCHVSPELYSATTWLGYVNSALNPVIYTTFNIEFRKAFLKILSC
Procedure: [^3H]-Spiperone Binding Assay at hD3 and hD4 recombinant receptors CHO cells transiently transfected with human dopamine type 3 or 4 receptors (CHO-hD3 or CHO-hD4, respectively), were re-suspended in 20 mM HEPES, 2 mM EDTA (pH 7.4), homogenised and centrifuged at 40,000 g (20 min, 4° C.). After re-suspension, homogenization and centrifugation as above, the final pellet was re-suspended in 20 mM HEPES, 100 mM NaCl, 10 mM MgCl2, 1 mM EDTA (pH 7.4) and aliquots were kept at −80° C. [^3H]-Spiperone Binding experiments were performed in 96 deep-well polypropylene plates in 50 mM Tris/HCl, 120 mM NaCl, 5 mM KCl, 5 mM MgCl2 (pH 7.4). Compounds of invention were serially diluted in DMSO at 100 fold final concentrations in the assay (1% DMSO final in the assay). Displacement was performed in the presence of 0.3 nM [^3H]-Spiperone. The reaction was initiated by the addition of membrane suspension (4 μg and 12 μg of protein for CHO-hD3- and CHO-hD4 membranes, respectively) and lasted for 90 or 100 min (for hD3 or hD4 membranes, respectively) at 23° C. in a final volume of 500 μl. Non specific binding (NSB) was determined in the presence of 1 μM Spiperone. The binding reaction was stopped by rapid filtration through GF/B filterplates pre-soaked in 0.5% polyetylenimmine (PEI) using a Packard cell harvester. After washing with ice-cold 0.9% NaCl, the plate was left to dry before the addition of Microscint 20 ([…], PerkinElmer). Radioactivity was counted with a TopCount (PerkinElmer). Data were analysed by non-linear regression analysis using GraphPad Prism 5.0 (GraphPad Software). Saturation binding experiments were performed similar to the competition binding experiments using a radioligand concentrations ranging from 0.015 to 4.0 nM. […] Characterization of the human dopamine D3 receptor expressed in transfected cell lines.

## Cn1c(SCCCN2CCOC(c3ccc(C(F)(F)F)cc3)C2)nnc1-c1ccc(C(N)=O)cc1 (single isomer, unassigned) [Example 13, 4-[4-methyl-5-({3-[(2R or 2S)-2-[4-(trifluoromethyl)phenyl]morpholin-4-yl]propyl}sulfanyl)-4H-1,2,4-triazol-3-yl]benzamide]
[1]
  D2 p Ki: 4.86
[2]
  D3 p Ki: 7.94

## Cn1c(SCCCN2CCOC(c3ccc(C(F)(F)F)cc3)C2)nnc1-c1ccc(-c2ncco2)cc1 (single isomer, unassigned) [Example 15, (2S or 2R)-4-[3-({4-methyl-5-[4-(1,3-oxazol-2-yl)phenyl]-4H-1,2,4-triazol-3-yl}sulfanyl)propyl]-2-[4-(trifluoromethyl)phenyl]morpholine]
[1]
  D2 p Ki: 4.81
[2]
  D3 p Ki: 6.36

## Cn1c(SCCCN2CCOC(c3ccc(C(F)(F)F)cc3)C2)nnc1-c1ccc(-c2ncco2)cc1 (single isomer, unassigned) [Example 16, (2R or 2S)-4-[3-({4-methyl-5-[4-(1,3-oxazol-2-yl)phenyl]-4H-1,2,4-triazol-3-yl}sulfanyl)propyl]-2-[4-(trifluoromethyl)phenyl]morpholine]
[1]
  D2 p Ki: 5.28
[2]
  D3 p Ki: 8.23

## Cn1c(SCCCN2CCOC(c3ccc(C(F)(F)F)cc3)C2)nnc1-c1ccc(C(N)=O)cc1 (stereo not shown) [Example 11, 4-{4-methyl-5-[(3-{2-[4-(trifluoromethyl)phenyl]-morpholin-4-yl}propyl)sulfanyl]-4H-1,2,4-triazol-3-yl}benzamide]
[1]
  D2 p Ki: 4.96
[2]
  D3 p Ki: 7.46

## Cn1c(SCCCN2CCOC(c3ccc(C(F)(F)F)cc3)C2)nnc1-c1ccc(-c2ncco2)cc1 (stereo not shown) [Example 14, 4-[3-({4-methyl-5-[4-(1,3-oxazol-2-yl)phenyl]-4H-1,2,4-triazol-3-yl}sulfanyl)propyl]-2-[4-(trifluoromethyl)phenyl]morpholine]
[1]
  D2 p Ki: 5.83
[2]
  D3 p Ki: 8.31

## Cn1c(SCCCN2CCOC(c3ccc(C(F)(F)F)cc3)C2)nnc1-c1cccnc1 (stereo not shown) [Example 18, 4-(3-{[4-methyl-5-(pyridin-3-yl)-4H-1,2,4-triazol-3-yl]sulfanyl}propyl)-2-[4-(trifluoromethyl)phenyl]morpholine]
[1]
  D2 p Ki: 4.83
[2]
  D3 p Ki: 6.77

## Cn1c(SCCCN2CCOC(c3ccc(C(F)(F)F)cc3)C2)nnc1-c1cnccn1 (stereo not shown) [Example 19, 4-(3-{[4-methyl-5-(pyrazin-2-yl)-4H-1,2,4-triazol-3-yl]sulfanyl}propyl)-2-[4-(trifluoromethyl)phenyl]morpholine]
[2]
  D3 p Ki: 6.76

## Cn1c(SCCCN2CCOC(c3ccc(C(F)(F)F)cc3)C2)nnc1-c1ccc(C(N)=O)nc1 (stereo not shown) [Example 20, 5-{4-methyl-5-[(3-{2-[4-(trifluoromethyl)phenyl]morpholin-4-yl}propyl)sulfanyl]-4H-1,2,4-triazol-3-yl}pyridine-2-carboxamide]
[2]
  D3 p Ki: 7.45

## Cn1c(SCCCN2CCOC(c3ccc(C(F)(F)F)cc3)C2)nnc1-c1ccc(-n2cnnc2)cc1 (stereo not shown) [Example 21, 4-[3-({4-methyl-5-[4-(4H-1,2,4-triazol-4-yl)phenyl]-4H-1,2,4-triazol-3-yl}sulfanyl)propyl]-2-[4-(trifluoromethyl)phenyl]morpholine]
[1]
  D2 p Ki: 5.04
[2]
  D3 p Ki: 6.9

## Cn1c(SCCCN2CCOC(c3ccc(C(F)(F)F)cc3F)C2)nnc1-c1ccc(C(N)=O)cc1 (stereo not shown) [Example 35]
[2]
  D3 p Ki: 7.06

## Cc1ccc(C2CN(CCCSc3nnc(-c4ocnc4C)n3C)CCO2)cc1 (stereo not shown) [Example 36, 4-(3-{[4-methyl-5-(4-methyl-1,3-oxazol-5-yl)-4H-1,2,4-triazol-3-yl]sulfanyl}propyl)-2-(4-methylphenyl)morpholine]
[2]
  D3 p Ki: 6.17

## Cc1ncoc1-c1nnc(SCCCN2CCOC(c3ccc(Br)cc3)C2)n1C (stereo not shown) [Example 38, 2-(4-bromophenyl)-4-(3-{[4-methyl-5-(4-methyl-1,3-oxazol-5-yl)-4H-1,2,4-triazol-3-yl]sulfanyl}propyl)morpholine]
[2]
  D3 p Ki: 6.72
